Results published in PubChem BioAssay (NCI).
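Tested at 5 concentrations; 48 h exposure; 96-well plates; endpoints linearly interpolated, else capped at highest concentration. At the GI50, growth is halved. The concentration for full growth arrest is given as TGI.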

Experiments:
Experiment in all cases: inhibition of tumour cell growth, NCI panel, 48 h
786-0 renal = test system: 786-0 renal
A498 renal = test system: A498 renal
A549 NSCLC = test system: A549 NSCLC
ACHN renal = test system: ACHN renal
BT-549 breast = test system: BT-549 breast
CAKI-1 renal = test system: CAKI-1 renal
CCRF-CEM leukemia = test system: CCRF-CEM leukemia
COLO 205 colon = test system: COLO 205 colon
DU-145 prostate = test system: DU-145 prostate
EKVX NSCLC = test system: EKVX NSCLC
HCC-2998 colon = test system: HCC-2998 colon
HCT-116 colon = test system: HCT-116 colon
HCT-15 colon = test system: HCT-15 colon
HL-60(TB) leukemia = test system: HL-60(TB) leukemia
HOP-62 NSCLC = test system: HOP-62 NSCLC
HOP-92 NSCLC = test system: HOP-92 NSCLC
HS 578T breast = test system: HS 578T breast
HT29 colon = test system: HT29 colon
IGROV1 ovarian = test system: IGROV1 ovarian
K-562 leukemia = test system: K-562 leukemia
KM12 colon = test system: KM12 colon
LOX IMVI melanoma = test system: LOX IMVI melanoma
M14 melanoma = test system: M14 melanoma
MALME-3M melanoma = test system: MALME-3M melanoma
MCF7 breast = test system: MCF7 breast
MDA-MB-231 breast = test system: MDA-MB-231 breast
MDA-MB-435 = test system: MDA-MB-435
MDA-MB-468 breast = test system: MDA-MB-468 breast
MOLT-4 leukemia = test system: MOLT-4 leukemia

SMILES: Cc1ccccc1[C@H]1C(C(=O)c2ccc(Cl)cc2)C2(N[C@@H]1c1ccccc1)C(=O)Nc1ccc(Br)cc12 (stereo partly drawn)
- GI50 (786-0 renal): 5.9 µM
- TGI (786-0 renal): 10.9 µM
- GI50 (A498 renal): 6.11 µM
- TGI (A498 renal): 11.7 µM
- GI50 (A549 NSCLC): 5.44 µM
- TGI (A549 NSCLC): 11.8 µM
- GI50 (ACHN renal): 5.76 µM
- TGI (ACHN renal): 10.7 µM
- GI50 (BT-549 breast): 5.56 µM
- TGI (BT-549 breast): 10.6 µM
- GI50 (CAKI-1 renal): 4.11 µM
- TGI (CAKI-1 renal): 8.63 µM
- GI50 (CCRF-CEM leukemia): 7.4 µM
- TGI (CCRF-CEM leukemia): 22.4 µM
- GI50 (COLO 205 colon): 5.7 µM
- TGI (COLO 205 colon): 11.1 µM
- GI50 (DU-145 prostate): 5.46 µM
- TGI (DU-145 prostate): 10.6 µM
- GI50 (EKVX NSCLC): 4.33 µM
- TGI (EKVX NSCLC): 9.25 µM
- GI50 (HCC-2998 colon): 5.87 µM
- TGI (HCC-2998 colon): 10.9 µM
- GI50 (HCT-116 colon): 5.26 µM
- TGI (HCT-116 colon): 10.2 µM
- GI50 (HCT-15 colon): 5.39 µM
- TGI (HCT-15 colon): 10.7 µM
- GI50 (HL-60(TB) leukemia): 9.02 µM
- TGI (HL-60(TB) leukemia): 28.7 µM
- GI50 (HOP-62 NSCLC): 5.91 µM
- TGI (HOP-62 NSCLC): 11.6 µM
- GI50 (HOP-92 NSCLC): 2.99 µM
- TGI (HOP-92 NSCLC): 7.93 µM
- GI50 (HS 578T breast): 5.62 µM
- TGI (HS 578T breast): 18.5 µM
- GI50 (HT29 colon): 5.52 µM
- TGI (HT29 colon): 13.2 µM
- GI50 (IGROV1 ovarian): 4.85 µM
- TGI (IGROV1 ovarian): 10.4 µM
- GI50 (K-562 leukemia): 8.79 µM
- TGI (K-562 leukemia): 36.5 µM
- GI50 (KM12 colon): 5.63 µM
- TGI (KM12 colon): 11.6 µM
- GI50 (LOX IMVI melanoma): 5.22 µM
- TGI (LOX IMVI melanoma): 9.99 µM
- GI50 (M14 melanoma): 5.9 µM
- TGI (M14 melanoma): 11.1 µM
- GI50 (MALME-3M melanoma): 5.35 µM
- TGI (MALME-3M melanoma): 10.3 µM
- GI50 (MCF7 breast): 4.33 µM
- TGI (MCF7 breast): 10.2 µM
- GI50 (MDA-MB-231 breast): 5.34 µM
- TGI (MDA-MB-231 breast): 10.2 µM
- GI50 (MDA-MB-435): 5.61 µM
- TGI (MDA-MB-435): 10.6 µM
- GI50 (MDA-MB-468 breast): 5.24 µM
- TGI (MDA-MB-468 breast): 10.1 µM
- GI50 (MOLT-4 leukemia): 6.48 µM
- TGI (MOLT-4 leukemia): 23.3 µM
